Results as given in BindingDB's records for doi:10.3109/14756366.2013.777717 (Tokushima Bunri University, 2014).

Each molecule was assayed against T1, Sphingomyelinase C (Bacillus cereus, UniProt P11889) (assay: Turbidometric Assay). Conditions: pH 7.5; 37 °C.
T1 sequence (P11889 whole entry): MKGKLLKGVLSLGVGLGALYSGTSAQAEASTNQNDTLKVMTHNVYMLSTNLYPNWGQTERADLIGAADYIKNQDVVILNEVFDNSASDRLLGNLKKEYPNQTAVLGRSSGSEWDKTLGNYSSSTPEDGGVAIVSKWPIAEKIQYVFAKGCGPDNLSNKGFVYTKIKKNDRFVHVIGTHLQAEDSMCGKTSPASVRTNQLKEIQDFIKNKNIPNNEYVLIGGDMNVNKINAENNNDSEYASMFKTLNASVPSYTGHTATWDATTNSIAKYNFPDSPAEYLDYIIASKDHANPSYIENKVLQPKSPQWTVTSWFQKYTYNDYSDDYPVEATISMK
Method: Briefly, Bc-SMase (50 ng/ml) was treated at 37 °C for 60 min with various compounds that were solubilized in dimethylacetoamide. The reaction mixture was incubated at 37 °C for 5 h with 1.0mM SM from bovine brain (Nacalai, Kyoto, Japan) that was solubilized in a solution containing 20mM Tris-HCl (pH 7.5), 1.0% sodium cholate, and 1mM MgCl2. The turbidity of the reaction mixture was analysed by absorption spectrometer at 620 nm.

Going from `CCCCCCCCCCCCC/C=C/[C@@H](O)[C@H](COCc1cccc(-c2ccccn2)n1)NC(=O)CCCCC` [RY221B-a] to `CCCCCCCCCCCCC/C=C/[C@@H](O)[C@H](COCc1cccc(-c2ccccn2)c1)NC(=O)CCCCC` [SMY-632], the IC50 rises from 1.2 µM to > 20 µM. The first is the more potent here.

Going from `CCCCCCCCCCCCC/C=C/[C@@H](Oc1cccc(-c2ccccn2)n1)[C@H](CO)NC(=O)CCCCC` [RY221B-b] to `CCCCCCCCCCCCC/C=C/[C@@H](Oc1cccc(-c2ccccn2)n1)[C@H](COCc1cccc(-c2ccccn2)n1)NC(=O)CCCCC` [SMY-610], the IC50 falls from > 20 µM to 3.3 µM.

First: CCCCCC(=O)N[C@@H](COCc1cccc(-c2ccccn2)n1)[C@H](O)/C=C/COc1ccc(C(=O)c2ccccc2)cc1 [SMY-469a]
Second: CCCCCC(=O)N[C@@H](COCc1cccc(-c2ccccn2)n1)[C@H](O)c1ccccc1 [SMY-540]
The IC50 of the first is higher: > 20 µM for the first, 0.8 µM for the second. The second is the more potent here.

Going from `CCCCCCCCCCCCC/C=C/[C@@H](O)[C@@H](N)COCc1cccc(-c2ccccn2)n1` [SMY-471] to `CCCCCCCCCCCCC/C=C/[C@@H](O)[C@H](COCc1cccc(-c2ccccn2)n1)NC(=O)OC(C)(C)C` [SMY-579], the IC50 rises from 0.9 µM to 18.3 µM (20-fold).

`CCCCCCCCCCCCCCC[C@@H](O)[C@H](COCc1cccc(-c2ccccn2)n1)NC(=O)CCCCC` [SMY-584] and `CCCCCCCCCCCCCCCCOC[C@H](COCc1cccc(-c2ccccn2)n1)OCCCCCCCCCCCCCCCC` [TOM-2-37] cannot be ordered by IC50: > 20 µM for the first, > 20 µM for the second.

`CCCCCC(=O)OC[C@H](COCc1cccc(-c2ccccn2)n1)OC(=O)CCCCC` [TOM-2-7] and `CCCCCCOC[C@H](COCc1cccc(-c2ccccn2)n1)OCCCCCC` [TOM-2-18] cannot be ordered by IC50: > 20 µM for the first, > 20 µM for the second.

In order of falling Ki:
1. CCCCCCCCCCCCC/C=C/[C@@H](O)[C@H](COCc1cccc(-c2ccccn2)n1)NC(=O)CCCCC [RY221B-a]  5.2 µM
2. CCCCCCCCCCCCC/C=C/[C@@H](O)[C@@H](N)COCc1cccc(-c2ccccn2)n1 [SMY-471]  2.8 µM
3. CCCCCC(=O)N[C@@H](COCc1cccc(-c2ccccn2)n1)[C@H](O)c1ccccc1 [SMY-540]  1.3 µM
